The results in this text go back to patent US11590116B2 (THERAVANCE BIOPHARMA R&D IP, LLC, priority 2019, dated 2023).

Test [1] concerns the target T1, recombinant human ALK5 (TGF-βR1) protein (Homo sapiens, UniProt P36897).
T1 construct: purchased Life Technologies PR9075A
T1 sequence (P36897 34-503): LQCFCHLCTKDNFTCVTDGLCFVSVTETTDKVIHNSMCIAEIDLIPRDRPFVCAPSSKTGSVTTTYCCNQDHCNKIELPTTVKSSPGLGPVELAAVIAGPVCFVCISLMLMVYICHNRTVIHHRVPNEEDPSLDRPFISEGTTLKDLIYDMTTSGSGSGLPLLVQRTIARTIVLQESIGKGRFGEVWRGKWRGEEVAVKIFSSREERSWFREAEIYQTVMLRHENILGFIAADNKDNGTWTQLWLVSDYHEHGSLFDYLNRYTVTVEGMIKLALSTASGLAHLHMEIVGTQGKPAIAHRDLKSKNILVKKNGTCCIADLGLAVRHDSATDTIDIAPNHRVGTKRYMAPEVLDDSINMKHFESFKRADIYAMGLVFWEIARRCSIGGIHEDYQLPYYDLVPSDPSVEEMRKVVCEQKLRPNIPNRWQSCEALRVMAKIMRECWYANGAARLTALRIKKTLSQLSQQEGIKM
The test is described as follows: Biochemical ALK5 (TGF-βR1) assay to measure pKi (LANCE Ultra ULight kinase assay). As to conditions: apparent pKi from pIC50 by Cheng-Prusoff, read-out: ALK5 pKi (converted). A digest of the protocol:
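After a 60 min room-temperature preincubation of ALK5 with compound, phosphorylation proceeds 60 min at 37 °C on ATP addition (125 μM as 5× stock). Detection: Eu-labelled phospho-Thr1342 Topo IIα antibody in EDTA buffer, pH 7.0; emission 665 nm.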

For test [2], the system named is TGF-β-stimulated SMAD3 phosphorylation in BEAS-2B cells. Put plainly: Cellular ALK5 potency assay, inhibition of TGF-β stimulated pSMAD3 formation in BEAS-2B cells. Conditions: Homo sapiens; inhibition of TGF-β stimulated pSMAD3 formation, BEAS-2B cells; read-out: BEAS2B pIC50 (converted). It is filed as cell-based. A digest of the protocol:
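pSMAD3 was quantified by AlphaLISA in BEAS-2B lysates after 10 ng/mL TGF-β (final) for 30 min. Before stimulation, cells received compound for 1 h at 37° C in supplemented HBSS. Values are pIC50, relative to TGF-β-stimulated cells without compound.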

For `Cc1cccc(-c2n[nH]cc2-c2ccc3ncc(-c4cnn(C5CNC5)c4)cc3n2)n1` [Compound 386, 7-[1-(azetidin-3-yl)pyrazol-4-yl]-2-[3-(6-methyl-2-pyridyl)-1H-pyrazol-4-yl]-1,5-naphthyridine], in test [1], the Ki was less than 0.0316 nM. The IC50 in test [2] was 25.1 to 158 nM.
As to `Cc1cccc(-c2n[nH]cc2-c2ccc3ncc(-n4cc(-c5ccccc5)nn4)cc3n2)n1` [Compound 133, 2-[3-(6-methyl-2-pyridyl)-1H-pyrazol-4-yl]-7-(4-phenyltriazol-1-yl)-1,5-naphthyridine], the Ki in test [1] is 0.398 to 3.16 nM. The IC50 in test [2] was 25.1 to 158 nM.
As to `Cc1cccc(-c2[nH]cnc2-c2ccc3ncc(N)cc3c2)n1` [Compound 594, 6-[5-(6-methyl-2-pyridyl)-1H-imidazol-4-yl]quinolin-3-amine], in test [1], the Ki was 0.0398 to 0.316 nM. Also, the IC50 in test [2] is less than 20 nM.
For `Cc1cccc(-c2[nH]cnc2-c2ccc3ncc(N4CCC(C(=O)OC5CCNCC5)CC4)cc3c2)n1` [Compound 701, piperidin-4-yl 1-(6-(5-(6-methylpyridin-2-yl)-1H-imidazol-4-yl)quinolin-3-yl)piperidine-4-carboxylate], in that order: 0.0398 to 0.316 nM and 200 to 1260 nM.
As to `Cc1cccc(-c2[nH]cnc2-c2ccc3ncc(-c4ccc(C(=O)OC[C@H]5CCCNC5)cn4)cc3c2)n1` [Compound 1224, [(3S)-3-piperidyl]methyl 6-[6-[5-(6-methyl-2-pyridyl)-1H-imidazol-4-yl]-3-quinolyl]pyridine-3-carboxylate], in test [1], the Ki is 0.0398 to 0.316 nM. Also, in test [2], the IC50 is 25.1 to 158 nM.
For `Cc1cccc(-c2[nH]cnc2-c2ccc3nccc(C(=O)OCC4CCNCC4)c3c2)n1` [Compound 1078, 4-piperidylmethyl 6-[5-(6-methyl-2-pyridyl)-1H-imidazol-4-yl]quinoline-4-carboxylate], in that order: 0.398 to 3.16 nM and 25.1 to 158 nM.
For `Cc1cccc(-c2[nH]cnc2-c2ccc3ncc(-c4ccc(C(=O)OC[C@@H]5CCCN5)cn4)cc3c2)n1` [Compound 1163, [(2S)-pyrrolidin-2-yl]methyl 6-[6-[5-(6-methyl-2-pyridyl)-1H-imidazol-4-yl]-3-quinolyl]pyridine-3-carboxylate], in that order: 0.0398 to 0.316 nM and 25.1 to 158 nM.
For the compound `Cc1cccc(-c2[nH]cnc2-c2ccc3ncc(C(=O)OC[C@H]4CC[C@@H](N)CC4)cc3c2)n1` [Compound 770, (4-aminocyclohexyl)methyl 6-[5-(6-methyl-2-pyridyl)-1H-imidazol-4-yl]quinoline-3-carboxylate], the Ki in test [1] was 0.0398 to 0.316 nM. In test [2], the IC50 is 25.1 to 158 nM.
Taken in the same sequence, the figures for `Cc1cccc(-c2[nH]cnc2-c2ccc3ncc(C(=O)O[C@H]4CCCC[C@H]4N)cc3c2)n1` [Compound 882, (1S,2R)-2-aminocyclohexyl 6-(5-(6-methylpyridin-2-yl)-1H-imidazol-4-yl)quinoline-3-carboxylate] were 3.98 to 31.6 nM and 25.1 to 158 nM.
In the case of `Cc1cccc(-c2nc3ccccn3c2-c2ccc3ncc(-c4cnc5n4CCN5)cc3n2)n1` [Compound 23, 7-(6,7-dihydro-5H-imidazo[1,2-a]imidazol-3-yl)-2-[2-(6-methyl-2-pyridyl)imidazo[1,2-a]pyridin-3-yl]-1,5-naphthyridine], the Ki in test [1] is less than 0.0316 nM. Moreover, the IC50 in test [2] is 25.1 to 158 nM.
Consider `Cc1cccc(-c2n[nH]cc2-c2ccc3ncc(NCCN4CCN(C)CC4)cc3n2)n1` [Compound 619, N-[2-(4-methylpiperazin-1-yl)ethyl]-6-[3-(6-methyl-2-pyridyl)-1H-pyrazol-4-yl]-1,5-naphthyridin-3-amine], for which the Ki in test [1] was 0.0398 to 0.316 nM. Besides, the IC50 in test [2] was 25.1 to 158 nM.
For `CNC1CC2CCC(C1)N2c1cnc2ccc(-c3c[nH]nc3-c3cccc(C)n3)nc2c1` (stereo not shown) [Compound 248, N-methyl-8-[6-[3-(6-methyl-2-pyridyl)-1H-pyrazol-4-yl]-1,5-naphthyridin-3-yl]-8-azabicyclo[3.2.1]octan-3-amine], in that order: 3.98 to 31.6 nM and 200 to 1260 nM.
For `Cc1cccc(-c2[nH]ncc2-c2ccc3nccc(C(=O)O[C@H]4C[C@@H](N)C4)c3c2)n1` [Compound 1047, (3-aminocyclobutyl) 6-[5-(6-methyl-2-pyridyl)-1H-pyrazol-4-yl]quinoline-4-carboxylate], in that order: 0.398 to 3.16 nM and 25.1 to 158 nM.
As to `Cc1cccc(-c2[nH]cnc2-c2ccc3ncc(-c4cnc(C(=O)OC5CNC5)nc4)cc3c2)n1` [Compound 1112, azetidin-3-yl 5-[6-[5-(6-methyl-2-pyridyl)-1H-imidazol-4-yl]-3-quinolyl]pyrimidine-2-carboxylate], the Ki in test [1] is 0.398 to 3.16 nM. Also, the IC50 in test [2] is 1580 to 10000 nM.
For `Cc1cccc(-c2[nH]cnc2-c2ccc3ncc(N4C[C@@H](C)N[C@@H](C)C4)cc3c2)n1` [Compound 148, 3-[(3R,5S)-3,5-dimethylpiperazin-1-yl]-6-[5-(6-methyl-2-pyridyl)-1H-imidazol-4-yl]quinoline], the Ki in test [1] was 0.0398 to 0.316 nM. Further, the IC50 in test [2] is 25.1 to 158 nM.
Taken in the same sequence, the figures for `Cc1cccc(-c2n[nH]cc2-c2ccc3ncc(-c4cc5n(n4)CCN5)cc3n2)n1` [Compound 564, 7-(2,3-dihydro-1H-imidazo[1,2-b]pyrazol-6-yl)-2-[3-(6-methyl-2-pyridyl)-1H-pyrazol-4-yl]-1,5-naphthyridine] were less than 0.0316 nM and less than 20 nM.
`Cc1cccc(-c2[nH]cnc2-c2ccc3ncc(-c4cccc5c4CNCC5)cc3c2)n1` [Compound 493, 6-[5-(6-methyl-2-pyridyl)-1H-imidazol-4-yl]-3-(1,2,3,4-tetrahydroisoquinolin-8-yl)quinoline]: the Ki in test [1] was 3.98 to 31.6 nM. Further, the IC50 in test [2] is 200 to 1260 nM.
For `Cc1cccc(-c2n[nH]cc2-c2ccc3ncc(-c4nnn5c4NCCC5)cc3n2)n1` [Compound 550, 2-[3-(6-methyl-2-pyridyl)-1H-pyrazol-4-yl]-7-(4,5,6,7-tetrahydrotriazolo[1,5-a]pyrimidin-3-yl)-1,5-naphthyridine], in test [1], the Ki was 0.0398 to 0.316 nM. In test [2], the IC50 was 25.1 to 158 nM.
Taken in the same sequence, the figures for `Cc1cccc(-c2[nH]cnc2-c2ccc3ncc(-c4ccnc(C(=O)OC5CNC5)c4)cc3c2)n1` [Compound 1133, azetidin-3-yl 4-[6-[5-(6-methyl-2-pyridyl)-1H-imidazol-4-yl]-3-quinolyl]pyridine-2-carboxylate] were 0.0398 to 0.316 nM and 200 to 1260 nM.
`Cc1cccc(-c2[nH]cnc2-c2ccc3ncc(-c4csc(C(=O)OCC5CNC5)n4)cc3c2)n1` [Compound 1148, azetidin-3-ylmethyl 4-[6-[5-(6-methyl-2-pyridyl)-1H-imidazol-4-yl]-3-quinolyl]thiazole-2-carboxylate]: the Ki in test [1] was 0.0398 to 0.316 nM. Besides, the IC50 in test [2] is 25.1 to 158 nM.
Taken in the same sequence, the figures for `Cc1cccc(-c2n[nH]c(NCCN3CCOCC3)c2-c2ccc3ncc(-c4ccncc4)cc3n2)n1` [Compound 468, 3-(6-methylpyridin-2-yl)-N-(2-morpholinoethyl)-4-(7-(pyridin-4-yl)-1,5-naphthyridin-2-yl)-1H-pyrazol-5-amine] were 0.0398 to 0.316 nM and 200 to 1260 nM.
Consider `Cc1cccc(-c2[nH]ncc2-c2ccc3ncc(C(=O)O[C@H]4CC[C@@H](N)CC4)cc3c2)n1` [Compound 1228, (4-aminocyclohexyl) 6-[5-(6-methyl-2-pyridyl)-1H-pyrazol-4-yl]quinoline-3-carboxylate], for which the Ki in test [1] was 0.0398 to 0.316 nM. For the same compound, the IC50 in test [2] was 25.1 to 158 nM.
Taken in the same sequence, the figures for `Cc1cccc(-c2[nH]cnc2-c2ccc3ncc(C(=O)OCCN4CCNCC4)cc3c2)n1` [Compound 756, 2-(piperazin-1-yl)ethyl 6-(5-(6-methylpyridin-2-yl)-1H-imidazol-4-yl)quinoline-3-carboxylate] were 0.0398 to 0.316 nM and 25.1 to 158 nM.
For `Cc1cccc(-c2n[nH]cc2-c2ccc3ncc(NCCN4CCOCC4)cc3n2)n1` [Compound 239, 6-[3-(6-methyl-2-pyridyl)-1H-pyrazol-4-yl]-N-(2-morpholinoethyl)-1,5-naphthyridin-3-amine], in that order: 0.0398 to 0.316 nM and 25.1 to 158 nM.
On to `Cc1cccc(-c2[nH]cnc2-c2ccc3ncc(-c4ccc(C(=O)OC5CCNCC5)cc4)cc3c2)n1` [Compound 310, 4-piperidyl 4-[6-[5-(6-methyl-2-pyridyl)-1H-imidazol-4-yl]-3-quinolyl]benzoate], for which, in test [1], the Ki was 0.0398 to 0.316 nM. Besides, in test [2], the IC50 was 25.1 to 158 nM.
For `Cc1cccc(-c2n[nH]cc2-c2ccc3ncc(N4CC5CNCC54)cc3n2)n1` (stereo not shown) [Compound 260, 7-(3,6-diazabicyclo[3.2.0]heptan-6-yl)-2-[3-(6-methyl-2-pyridyl)-1H-pyrazol-4-yl]-1,5-naphthyridine], in that order: 0.398 to 3.16 nM and 200 to 1260 nM.
